Measurements from BindingDB's records for doi:10.1021/jm021073r (University of Bath, 2003).

What follows are compounds tested against Kappa-type opioid receptor (Homo sapiens, UniProt P41145) (assay: Stimulation of U-69,593 binding at human recombinant Opioid receptor kappa 1 transfected into CHO cells.).
Kappa-type opioid receptor, sequence (P41145 whole entry): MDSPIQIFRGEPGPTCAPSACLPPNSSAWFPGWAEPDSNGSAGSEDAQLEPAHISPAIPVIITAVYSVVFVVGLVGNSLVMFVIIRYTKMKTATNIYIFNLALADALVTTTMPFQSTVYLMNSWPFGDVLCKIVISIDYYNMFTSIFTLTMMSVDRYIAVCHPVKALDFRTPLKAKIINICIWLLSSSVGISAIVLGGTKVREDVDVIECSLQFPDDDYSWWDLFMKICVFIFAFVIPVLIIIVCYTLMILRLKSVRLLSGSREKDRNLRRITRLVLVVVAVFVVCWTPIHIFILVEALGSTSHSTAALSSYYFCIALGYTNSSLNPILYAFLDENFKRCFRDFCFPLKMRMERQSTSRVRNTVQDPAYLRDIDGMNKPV

Question: Which EC50 does the source give for CN1CC[C@]23c4c5ccc(O)c4O[C@H]2c2[nH]c4ccccc4c2C[C@@]3(N)C1C5 here?
Answer: Its EC50 is 87 nM.

Question: How did the EC50 turn out when CCN[C@@]12Cc3c([nH]c4ccccc34)[C@@H]3Oc4c(O)ccc5c4[C@@]31CCN(C)C2C5 was run?
Answer: The EC50 was 98 nM.

Question: How did the EC50 turn out when CCCCCCC(=O)N[C@@]12Cc3c([nH]c4ccccc34)[C@@H]3Oc4c(O)ccc5c4[C@@]31CCN(C)C2C5 was run?
Answer: Its EC50 is 57 nM.

Question: For CN1CC[C@]23c4c5ccc(O)c4O[C@H]2c2[nH]c4ccccc4c2C[C@@]3(NC(=O)CCc2ccccc2)C1C5, which EC50 is on record?
Answer: Its EC50 is 9.5 nM.
